{"source": "paper PMC10865409", "about": "“The prFMNH2-binding chaperone LpdD assists UbiD decarboxylase activation” (The Journal of Biological Chemistry, 2024)", "molecules": {"B1": {"name": "LpdD (lp_0272) from Lactobacillus plantarum, His-tagged (natural protein)", "chain": "MATFTTEQAGYQMQAILQVIGYDLLIVVTGGTNPHIGDVTTLTASTVPETVKFPSHDGRFHKDNFISERMAKRIQRYLAGSCTITAGIHVNQITKAQIAAAAPMTDDLSRQIISWLQAHPVQAEKPEYYGQDEQPR", "notes": "LpdD, small protein associated with the UbiD-type gallate decarboxylase LpdC, Lactobacillus plantarum, locus lp_0272; E. coli codon-optimized synthetic gene; N- and C-terminally His-tagged LpdD were both made (pET28a and pET30a); the best crystals came from the N-terminally tagged protein; The pull-down says only 'His-tagged LpdD'; The tag is detected by His-Western blot in the pull-down; also …"}, "B2": {"name": "LpdD H35A variant (natural protein, Lactobacillus plantarum)", "chain": "B1 chain with H35A", "notes": "LpdD, Lactobacillus plantarum, locus lp_0272, with H35A made by site-directed mutagenesis of the WT construct; source: E. coli BL21(DE3), purified"}}, "key": {"LpdD [1]": {"target": "T1, LpdD (Lactiplantibacillus plantarum, UniProt F9UT68)", "T1 construct": "full length, N-terminal hexahistidine tag (best crystals; C-terminal also made), E. coli codon-optimized gene, E. coli BL21(DE3), Ni-NTA; dimer", "T1 sequence (F9UT68 1-136)": "B1 chain", "assay": "UV-Vis after in vitro reconstitution and desalting", "format": "binding", "settings": "anaerobic, 2:1 prFMNH2:protein, 50 mM Tris pH 7.5, 200 mM NaCl, with or without MnCl2"}, "LpdD [2]": {"target": "T2, LpdD (Lactiplantibacillus plantarum, UniProt F9UT68, H61A)", "T2 construct": "full length, N-terminal hexahistidine tag (best crystals; C-terminal also made), E. coli codon-optimized gene, E. coli BL21(DE3), Ni-NTA; dimer", "T2 sequence (F9UT68 whole entry H61A)": "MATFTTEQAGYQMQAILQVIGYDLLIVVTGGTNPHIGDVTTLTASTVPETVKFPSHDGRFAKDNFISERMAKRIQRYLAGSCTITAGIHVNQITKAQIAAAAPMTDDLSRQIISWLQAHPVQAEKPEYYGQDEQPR", "assay": "UV-Vis after in vitro reconstitution and desalting", "format": "binding", "settings": "anaerobic, 2:1 prFMNH2:protein, 50 mM Tris pH 7.5, 200 mM NaCl, 1 mM MnCl2"}, "[3]": {"target": "T3, UbiD (Strep-tagged apo-UbiD) (Escherichia coli, UniProt P0AAB4)", "T3 construct": "Strep-tagged, purified apo-UbiD reconstituted with LpdD-containing E. coli lysate and prFMNH2; 4-hydroxybenzoate row is endogenous UbiD of E. coli BL21(DE3)", "T3 sequence (P0AAB4 1-497)": "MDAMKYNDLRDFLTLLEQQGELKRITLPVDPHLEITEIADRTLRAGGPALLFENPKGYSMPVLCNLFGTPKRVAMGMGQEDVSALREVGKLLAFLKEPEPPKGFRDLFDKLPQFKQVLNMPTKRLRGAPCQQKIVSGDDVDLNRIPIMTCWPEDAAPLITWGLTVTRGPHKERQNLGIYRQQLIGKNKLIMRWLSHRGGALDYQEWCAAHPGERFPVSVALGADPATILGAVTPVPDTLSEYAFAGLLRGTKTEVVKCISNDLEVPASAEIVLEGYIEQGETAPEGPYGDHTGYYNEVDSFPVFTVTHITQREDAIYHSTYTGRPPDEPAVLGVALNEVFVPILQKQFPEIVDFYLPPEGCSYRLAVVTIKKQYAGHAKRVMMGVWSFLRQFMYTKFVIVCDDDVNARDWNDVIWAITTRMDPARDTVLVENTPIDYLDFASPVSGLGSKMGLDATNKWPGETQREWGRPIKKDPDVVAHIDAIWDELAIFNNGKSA", "assay": "decarboxylation by HPLC; Strep-UbiD plus LpdD-containing lysate", "format": "biochemical", "settings": "anaerobic; LpdD lysate supernatant with or without prFMNH2; purified UbiD alone inactive"}, "[4]": {"target": "T3, UbiD (Strep-tagged apo-UbiD)", "assay": "ESI-MS of reconstituted Strep-UbiD", "format": "binding", "settings": "reconstituted with LpdD-containing cell lysate and prFMNH2"}, "[5]": {"target": "the molecule itself", "assay": "crystal structure; N-terminally His-tagged LpdD, ca 15 mg/ml, 1.6 M magnesium sulfate heptahydrate, 0.1 M Mes pH 6.5, 20 °C; space group I222, two monomers in the asymmetric unit; dimer built by crystallographic symmetry"}, "[6]": {"target": "T4, Strep-tagged Escherichia coli UbiD (Escherichia coli, UniProt P0AAB4 1-497)", "T4 construct": "UbiD, prFMN-dependent decarboxylase of ubiquinone biosynthesis, Escherichia coli; also called Strep-UbiD; Strep-apo-UbiD; source: purified", "T4 sequence (looked up)": "T3 sequence (P0AAB4 1-497)", "assay": "pull-down; Strep-tagged UbiD and His-tagged LpdD mixed in an equimolar ratio, pulled down with streptavidin beads under anaerobic conditions; SDS-PAGE and His-Western blot", "settings": "both partners purified"}, "[7]": {"target": "the molecule itself", "assay": "crystal structure; LpdD H35A, space group P4_(1)2_(1)2, one molecule in the asymmetric unit, distinct crystallization conditions; dimer built by crystallographic symmetry"}}, "note": "Changes are numbered by the printed parent chain. Names and notes keep the numbering of the source.", "data": [{"molecule": "Cc1cc2c3c(c1C)C(C)(C)CCN3c1c([nH]c(=O)[nH]c1=O)N2C[C@H](O)[C@H](O)[C@H](O)COP(=O)(O)O", "note": "[prFMNH2]", "values": [{"measurement": "UV-Vis after in vitro reconstitution and desalting", "setting": "LpdD [1]", "result": "In vitro reconstitution of purified apo-LpdD with prFMNH2 results in similar spectral features"}, {"measurement": "UV-Vis after in vitro reconstitution and desalting", "setting": "LpdD [2]", "result": "purified H61A variant reveals this mutation does not abolish prFMNH2 binding"}]}, {"molecule": "O=C(O)c1ccc(O)c(O)c1", "note": "[compound 2, 3,4-dihydroxy-benzoic acid]", "values": [{"measurement": "decarboxylation by HPLC; Strep-UbiD plus LpdD-containing lysate", "setting": "[3]", "result": "activity was observed when LpdD-containing cell lysate supernatant was included in the assays"}]}, {"molecule": "Cc1cc2c3c(c1C)C(C)(C)CC=[N+]3c1c(nc([O-])[nH]c1=O)N2C[C@H](O)[C@H](O)[C@H](O)COP(=O)(O)O", "note": "[prFMN^iminium]", "values": [{"measurement": "ESI-MS of reconstituted Strep-UbiD", "setting": "[4]", "result": "reconstituted Strep-UbiD reveals the presence of catalytically relevant prFMN^iminium species"}]}, {"molecule": "B1", "values": [{"measurement": "stoichiometry N", "setting": "[5]", "result": 2}, {"measurement": "binding result", "setting": "[6]", "result": "binds"}]}, {"molecule": "B2", "values": [{"measurement": "stoichiometry N", "setting": "[7]", "result": 2}]}]}
